# Data published in patent publication US6034134A, “1-Amino-alkylcyclohexane NMDA receptor antagonists” (Merz + Co. GmbH & Co., priority 1998, dated 2000).
# Read-outs that look alike come from different tables or passages of the source.
# How the values were obtained:
# [1] = tested on: NMDA receptor; assay: Patch clamp: NMDA-induced inward currents in cultured hippocampal neurones; type: cell-based, rat; conditions: read-out: Patch Clamp IC50
# Summary of the method: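 Whole-cell recordings at 20-22 °C from cultured E20–E21 rat hippocampal neurones, compounds applied by fast superfusion against NMDA-evoked currents, with 1 μM glycine in all solutions and TTX extracellular; CsCl-based pipette solution, pH 7.3. IC50 from four-parameter logistic fit; only cells recovering ≥75% after antagonist kept.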
# [2] = tested on: cortical neurones; assay: Excitotoxicity: glutamate toxicity in cultured cortical neurones (MTT); type: cell-based, rat; conditions: Rattus norvegicus, Cortical neurone, 100 μM glutamate
# Summary of the method: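 Fetal Wistar rat cortical neurones (day 12-14 in culture, astrocyte-conditioned medium) exposed 20 h to 100 μM glutamate plus test drug in serum-free Neurobasal medium. Viability by MTT reduction read at 570 nm; IC50 by four-parameter logistic fit.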
# [3] = Maximal electroshock (MES)-induced convulsions in mice; type: in vivo; conditions: Mus musculus, ip, 0.5 h, mice, i.p., read-out: MES ED50
# Summary of the method: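 Female NMR mice (18-28 g) received compounds in 0.9% saline, then traction reflex and rotarod (5 rpm, 1 min) tests preceded corneal MES (100 Hz, 0.5 s, 50 mA). Tonic hind-paw extension scored; ED50 values by Litchfield-Wilcoxon, therapeutic index = side-effect ED50 / anti-MES ED50.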
# [4] = Method: All animals were kept with water and food ad libitum under a 12 hour light-dark cycle (light on at 6 a.m.) and at a controlled temperature (20±0.5° C.). All e experiments were performed between 10 a.m. and 5 p.m. Tested agents were injected 30 min. i.p. before the induction of convulsions if not stated otherwise (see below). All compounds were dissolved in 0.9% saline.
# [5] = Table 7, NMDA 200 μM with glycine 1 μM at -70 mV
# [6] = Table 7, 20 h, read-out: Glut. Tox. IC50
# [7] = Table 9, read-out: Glut Tox IC50
# [8] = Table 8, 95% confidence limits in parentheses
Structure (SMILES),"IC50 [1, 5] [µM]","IC50 ([1]; Table 9, NMDA-induced currents) [µM]","IC50 [2, 6] [µM]","IC50 [2, 7] [µM]","ED50 ([3]; Table 7, 30 min before) [mg/kg]","ED50 [3, 8] [mg/kg]","Min Lethality ([4]; i.p., minimal lethal dose) [mg/kg]","Min Lethality ([4]; mouse, in vivo, ip) [mg/kg]"
"CCNC1(C)CC(C)(C)CC(C)(C)C1 [Mrz 2/639, N-ethyl-1-amino-1,3,3,5,5-pentamethylcyclohexane]",7.4,7.4,5.7,6.33,5.5,5.87,30,
"CNC1(C)CC(C)(C)CC(C)(C)C1.Cl [Mrz 2/640, N,1,3,3,5,5-hexamethylcyclohexanamine hydrochloride]",14.6,14.6,8.3,8.35,8.2,8.18,108,
CC1(N)CCCCC1 [Mrz 2/641],> 100,> 100,> 100,> 100,> 50,> 50,> 50,
CC1(C)CC(CCN)CC(C)(C)C1 [Mrz 2/644],4.1,4.1,4.3,4.3,53,53,,> 35
